According to paper PMC9255995 (Oncotarget, 2022):

Key:
pRb in EFM-19 cells = assay: Inhibition of pRb in breast cancer cell line EFM-19; type: cell-based; conditions: Homo sapiens, 16 hours
[1] = system: Rb1-deficient breast cancer cell lines; assay: Breast cancer cell panel proliferation (nuclei count); type: cell-based, human; conditions: two doublings
Method: A panel of 37 BC cell lines (see Supplementary Table 3 for details) was obtained from the American Type Culture Collection (ATCC, Manassas, Virginia, USA 30-4500 K) or the German Collection of Microorganisms and Cell Cultures GmbH (DSMZ). Cells were cultured according to ATCC or DSMZ recommendations for fewer than ten passages. Cells were seeded in 96 or 384-well plates and incubated overnight prior to treatment.
Cells were plated at 1,000 or 2,000 cells per well in 384-well plates in a total volume of 25 μl of either growth media alone; with 2 μM staurosporine; or with decreasing concentrations of test compounds with a range 20 μM–1 nM. Test compounds were prepared in 100% DMSO using a dilution factor of 1:3 before addition to the cells pre-diluted in growth media. Cells were incubated at 37°C until the untreated cells had doubled twice. Cells were fixed with 70% ethanol, treated with RNAse and nuclei stained with Propidium Iodide (PI). Cell nuclei per well were counted using an ACUMEN EXPLORER™ (STP LABTECH LTD) to determine the number of cells remaining after treatment. […]
were thawed and resuspended in IMDM, 10% hiFBS […]
by curve, slope = steepness of curve at IC50. IC50: 558385), anti-CDK4 antibody (Abcam ab75511) and anti- […]
(ligand binding, enzyme response) by 50%. Fujifilm LAS4000. Actin (Sigma A5441) was used as a %Inh = [(median Max- x/ median Max – median loading control. […]
model were plotted as Geometric means in a waterfall plot using knime workflows. […]
containing 200 μg/ml Ribonuclease A (Sigma R6513).
To monitor senescence, cells […]
treated cells. The same procedure was also followed to instructions. […]
process. was removed. Cell pellet was incubated with Annexin […]
treated controls. […] Cells were analyzed […]
antibodies against CD13-FITC and CD11b-PE. After 10 exclusion and singlets selection). A minimum of 5000 […]
and supernatant was discarded. Cells were resuspended in (Alive). AnnexinV+/PI– (Early apoptosis), Annexin+/PI+ buffer for acquisition in flow cytometer. […]
cytometer (488-nm laser and 585/40nm filter). […] Finally, cells were washed and analyzed

[2] = system: pRb (Ser780) in NCI-H1568 cells; assay: pRb (Ser780) high content imaging cellular assay, CDK6-dependent NCI-H1568; type: cell-based; conditions: Homo sapiens, CDK6-dependent cell line, n = 4, read-out: pRb (Ser780) Cellular assays IC50 NCI-H1568
Method: (§1) Intracellular phosphorylation of Rb in its residue 780 (Ser780) was measured using fluorescently labeled phospho-specific antibodies and high content imaging. […]
(§2) using the flow cytometer (gated on single and alive RNase A (Sigma R6513) and Propidium Iodide (PI) cells subpopulations). The mean fluorescence intensity, (Thermo Fisher P3566) dilution in PBS was added for 1 h or median of fluorescence (MFI), was calculated, and at RT. Fluorescence plates were scanned with ACUMEN compared for individual well and condition. EXPLORER™ monitoring Alexa Fluor 488 and PI signals Cell cycle was analyzed using a Ki67/PI protocol. using 488nm wavelength. […]
(§3) (Immunostep, PI/RNASE) for 15 min at RT in the dark. and representation of final readouts. JMP (Statistical […]
(§4) pRb Ser780 – high content imaging cell-based was incubated with an antibody against Annexin V. After assay [previously described in Torres-Guzmán et al. 10 minutes of incubation in dark, cells were washed twice (2017)] using Annexin buffer V. Finally, cells were analyzed using MDA-MB-453 (CDK4-dependent) and NCI-H1568 the flow cytometer where PI (1:100) was automatically (CDK6-dependent) cells were seeded at a density of 5 000 added. The percentage of cells at the different phases of and 3 000 cells per well, respectively, in 96-well plates. apoptosis was represented (PI–/Annexin V- for Alive cells, Between 14–24 h after seeding, cells were treated with PI–/Annexin V+ for Early apoptotic cells, PI+/Annexin […]
(§5) V+ for Late apoptotic cells and PI+/Annexin V– for Dead
(§6) Compounds were provided as 10mM stock in 100% cells).
(§7) DMSO and were further diluted to achieve the desired Senescence final concentration (DMSO 0.2%). For fluorescent detection of β-galactosidase, cells After treatment with compounds, the cells were washed with PBS 1X and fixed using 2% PFA incubated at 37°C and 5% CO2 for 4h before being (Acros organics, 119690010) for 10 minutes. Then, cells washed once with PBS and adding 100 μl of fresh media. were washed using PBS+1%BSA and incubated with the […]

[3] = system: pRb in MDA-MB-175 VII cells; assay: Inhibition of pRb in breast cancer cell line MDA-MB-175 VII; type: cell-based; conditions: Homo sapiens, 16 hours
[4] = system: pRb (Ser780) in MDA-MB-453 cells; assay: pRb (Ser780) high content imaging cellular assay, CDK4-dependent MDA-MB-453; type: cell-based; conditions: Homo sapiens, CDK4-dependent cell line, n = 4, read-out: pRb (Ser780) Cellular assays IC50 MDA-MB-453
Method: as §1
as §2, with “The” for “using the flow cytometer (gated on single and alive RNase A (Sigma R6513) and Propidium Iodide (PI) cells subpopulations). The”
as §3, §4, §5, §6, §7

[5] = Viability of isolated mature neutrophils from human whole blood (Annexin V/PI); type: cell-based
Method: Human whole blood was obtained from six healthy donors who previously provided written informed consent. Mature neutrophils were isolated from human whole blood, using a negative-selection technique (MACSxpress isolation kit, Miltenyi 130-104-434). CD16 cell surface expression (Miltenyi, 130-113-396) was used as quality control; only samples with yield > 95% passed QC. CD34+ human bone marrow primary progenitor cells were obtained from Tebu bio (BM34C-4).
Mature neutrophils were plated in a 96-well plate (60K cells per well) in 100 μl RPMI 1640 (Invitrogen), 10% hiFBS (Fisher) and 1% Pen/Strep (Invitrogen).
Neutrophils were plated in a 96-well plate (60K cells/well) in the above-mentioned cell medium. A 10 mM stock of each CDK4 & 6i was used to make ten-point 1:3 serial dilutions in 100% DMSO; multiple dilution steps were used to reach the concentration in the assay: 10 μM, 0.1% DMSO. Non-treated cells (0.1% DMSO) and roscovitine (20 μM) were used as controls. Neutrophils were incubated for 6 h. Following treatment, cells were washed with FACS flow (BD, 342 003), and supernatant was removed. The cell pellet was stained with Annexin V-FITC antibody for 10 min in the dark. Cells were washed with Annexin buffer, centrifuged at 300 G for 5 min, supernatant was discarded, and cell pellet was resuspended in 100 μl of Annexin buffer and analyzed by flow cytometry. PI 1:200 was added automatically by the cytometer. All incubations occurred at 37°C, 5% CO2.
The percentage of alive, early apoptosis, late apoptosis, and dead cells was monitored using the Annexin V/PI assay. Cells were incubated with an anti-human Annexin V-FITC antibody, binding specifically to phosphotidylserine (PS), for 10 min in the dark. PS redistributes to the outer part of the cell membrane in an early stage of apoptosis; in late apoptotic cells, as the cell membrane loses its integrity, both PS and PI can be detected. […]

pRb in MDA-MB-361 cells = assay: Inhibition of pRb in breast cancer cell line MDA-MB-361; type: cell-based; conditions: Homo sapiens, 16 hours
pRb in BT474 cells = assay: Inhibition of pRb in breast cancer cell line BT474; type: cell-based; conditions: Homo sapiens, BT-474; 16 hours
pRb in MDA-MB-231 cells = assay: Inhibition of pRb in breast cancer cell line MDA-MB-231; type: cell-based; conditions: Homo sapiens, 16 hours
CDK4/CyclinD1 = CDK4/CyclinD1 (Homo sapiens, UniProt P11802); conditions: cell-free assay, KiATP
Chain of CDK4/CyclinD1 (P11802 whole entry): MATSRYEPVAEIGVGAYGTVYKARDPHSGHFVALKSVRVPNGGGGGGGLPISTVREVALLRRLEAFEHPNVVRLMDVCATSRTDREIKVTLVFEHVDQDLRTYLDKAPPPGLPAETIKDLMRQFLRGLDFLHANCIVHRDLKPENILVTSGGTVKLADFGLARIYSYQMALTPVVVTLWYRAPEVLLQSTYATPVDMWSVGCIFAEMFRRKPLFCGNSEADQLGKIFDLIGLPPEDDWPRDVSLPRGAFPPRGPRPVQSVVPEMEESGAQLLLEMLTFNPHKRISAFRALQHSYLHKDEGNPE
Chain of CDK4/CyclinD1 (P24385 whole entry partner): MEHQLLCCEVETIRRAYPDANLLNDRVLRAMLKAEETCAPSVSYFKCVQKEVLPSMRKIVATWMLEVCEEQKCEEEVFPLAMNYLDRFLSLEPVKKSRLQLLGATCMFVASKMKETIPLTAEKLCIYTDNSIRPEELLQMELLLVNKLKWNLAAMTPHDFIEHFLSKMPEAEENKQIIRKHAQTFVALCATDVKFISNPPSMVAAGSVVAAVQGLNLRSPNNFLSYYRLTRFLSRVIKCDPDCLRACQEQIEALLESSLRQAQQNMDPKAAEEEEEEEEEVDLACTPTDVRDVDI
Method: Compounds were mixed with substrate mix (C-terminal retinoblastoma fragment [CTRF] peptide and ATP/33-P ATP) at a final concentration range of 2 μM–0.1 nM. The mix was incubated for 90 min at RT and the reaction was then stopped by adding 80 μl of 10% ortho-Phosphoric acid. The mix was next transferred to Multiscreen filter plates (Millipore) to retain phosphorylated peptide. The plates were read in a Microbeta Trilux instrument. Reaction mix with excess of EDTA was used as assay “bottom signal”; complete reaction mix without the inhibitor/compound was used as assay “top signal”.
For IC50 determination, results were fitted to a four-parameter dose-response curve using the following equation:
For the ATP saturation studies Ki and K’i parameters were estimated using the formula:
V=Vmax[S]/[Km(1+[I]/Ki)+[S](1+[I]/Ki')]

T47D cells = assay: T47D continuous dosing, apoptosis by Annexin V/PI flow cytometry; type: cell-based, human; conditions: after 8 days of continuous dosing
Method: T47D cells were seeded in six-well plates (50 000 cells/well) in 2 ml of cell medium (10% hiFBS [Fisher] and 1% Pen/Strep [Invitrogen]). […] Non-treated cells (0.04% DMSO) and staurosporine 1 μM were used as controls for minimum and maximum inhibition controls respectively. […] Cells were then detached using trypsin and transferred to the deep well plate and spun at 1 300 rpm for 5 min. Cell pellet was washed using PBS1X and plated for apoptosis measurement (Annexin V/PI), using the procedure described above (mature neutrophils). All cells were gated on FSC/SSC to exclude debris and doublets.

pRb in MCF-7 cells = assay: Inhibition of pRb in breast cancer cell line MCF-7; type: cell-based; conditions: Homo sapiens, MCF7; 16 hours
[6] = system: pRb (Ser780) in MDA-MB-453 cells; assay: pRb (Ser780) washout experiment in MDA-MB-453; type: cell-based; conditions: Homo sapiens
Method: as §2
Next, cells were washed, Raw data were analyzed with FlowJo 10.6 software. and the cell pellet was incubated with PI/RNase A Graph Pad v8.4.3 software was used for data analysis (Immunostep, PI/RNASE) for 15 min at RT in the dark. and representation of final readouts. JMP (Statistical Cells were analyzed using the flow cytometer (gated for Discovery from SAS) was used for the statistical treatment debris exclusion and single cells). A minimum of 5 000 (ANOVA, pair-wise analysis) of the data. […]
All data were analyzed using FlowJo 10.6 and Graph Pad […]
as §4, §5, §6, §7

pRb in HCC70 cells = assay: Inhibition of pRb in breast cancer cell line HCC70; type: cell-based; conditions: Homo sapiens, 16 hours
pRb in MDA-MB-134 cells = assay: Inhibition of pRb in breast cancer cell line MDA-MB-134; type: cell-based; conditions: Homo sapiens; 16 hours
[7] = read-out: relative IC50 for pRb (Ser780) reduction, 12 h after compound removal, MDA-MB-453, 4 h treatment then 12 h washout
[8] = MDA-MB-453, 4 h treatment, before compound removal, read-out: relative IC50 for pRb (Ser780) reduction, treatment phase

IC50 (pRb in EFM-19 cells) [nM] | IC50 [2] [nM] | IC50 [3] [nM] | IC50 [4] [nM] | IC50 (pRb in MDA-MB-361 cells) [nM] | IC50 (pRb in BT474 cells) [nM] | IC50 (pRb in MDA-MB-231 cells) [nM] | specificity for CDK4/Cyclin D1 over CDK6/Cyclin D3 complexes (CDK4/CyclinD1) | IC50 (pRb in MCF-7 cells) [nM] | IC50 [6, 7] [nM] | IC50 [6, 8] [nM] | IC50 (pRb in MDA-MB-134 cells) [nM] | SMILES | activity in Rb1-deficient cell lines (proliferation) [1] | viability at 6 h [5] [%] | percentage in total apoptotic and dead cells (T47D cells; 50 nM) [%] | percentage in total apoptotic and dead cells (T47D cells; 100 nM) [%] | IC50 (pRb in HCC70 cells) [nM]
4.4 ± 1.2 | 94 | 17.8 ± 2.8 | 7.4 | 8.24 ± 1.6 | 4.58 ± 2.9 | 17.1 ± 4.2 | approximately 14 fold | 19.4 ± 7.4 | < 100 | 6.4 | 8.5 ± 0.9 | CCN1CCN(Cc2ccc(Nc3ncc(F)c(-c4cc(F)c5nc(C)n(C(C)C)c5c4)n3)nc2)CC1 [Abemaciclib, abemaciclib] | inactive | 82.5 | 28.1 | 40.7 | > 6000
11 ± 0.6 | 63 | 18.9 ± 4.7 | 23 | 14.6 ± 2.1 | 11.5 ± 5.5 | 16.1 ± 7.6 | – | 25.6 ± 14 | 447 | 14.1 | 20.5 ± 8.2 | CC(=O)c1c(C)c2cnc(Nc3ccc(N4CCNCC4)cn3)nc2n(C2CCCC2)c1=O [Palbociclib, palbociclib] | inactive | 82.9 | 13.2 | 18.7 | > 6000
31 ± 3.6 | 554 | 115 ± 80.9 | 53 | 54.2 ± 13.8 | 34 ± 26.7 | 71.5 ± 26.5 | – | 116 ± 78.5 | – | – | 60 ± 19.7 | CN(C)C(=O)c1cc2cnc(Nc3ccc(N4CCNCC4)cn3)nc2n1C1CCCC1 [Ribociclib, ribociclib] | inactive | 81.4 | – | – | > 6000
